This note sets out measurements from PMC9032693, “Biological Evaluation of New Thienopyridinium and Thienopyrimidinium Derivatives as Human Choline Kinase Inhibitors” (Pharmaceutics, 2022).

SMILES strings stand for the structures.

T1 sequence (P35790 75-457): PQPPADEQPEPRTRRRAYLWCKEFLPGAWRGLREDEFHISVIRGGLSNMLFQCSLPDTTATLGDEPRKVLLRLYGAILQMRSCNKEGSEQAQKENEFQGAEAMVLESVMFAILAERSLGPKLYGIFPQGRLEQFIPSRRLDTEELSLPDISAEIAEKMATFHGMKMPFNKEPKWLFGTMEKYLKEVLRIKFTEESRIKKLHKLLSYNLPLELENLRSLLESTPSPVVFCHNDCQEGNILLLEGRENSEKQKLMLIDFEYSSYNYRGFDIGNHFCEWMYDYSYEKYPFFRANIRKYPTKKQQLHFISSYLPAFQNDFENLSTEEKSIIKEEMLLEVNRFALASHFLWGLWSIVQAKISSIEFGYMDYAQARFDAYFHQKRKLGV

One assay addresses T1, CKα1 (Homo sapiens, UniProt P35790).
T1 construct: an N-terminally His-tagged truncated form of CKα1 (Δ75–457) was cloned into a pET-28a vector; His tag (N); made in house; host or cells: E. coli BL21 (DE3) Star
Description: Choline kinase assay ([methyl-14C]choline into PCho, purified enzyme). The format is biochemical. The conditions noted are these: concentration required to inhibit CKα1 enzyme by 50%. As for the experimental part: The protein was produced and purified as previously described. Briefly, an N-terminally His-tagged truncated form of CKα1 (Δ75–457) was cloned into a pET-28a vector and expressed at 37 °C in E. coli BL21 (DE3) Star cells using 1 mM isopropyl β-D-1-thiogalactopyranoside (IPTG). After centrifugation, the cellular pellet was resuspended in 50 mM Tris-HCl pH 7.5, 500 mM NaCl, 0.2 mM phenylmethylsulphonyl fluoride (PMSF), DNase, and 0.5 mM β-mercaptoethanol, sonicated and subjected to a two-step purification procedure to isolate the target enzyme. […] Protein elution was completed using buffer A + 400 mM imidazole. A second size-exclusion chromatography step was then carried out to achieve complete purity. To this end, we used a HiPrep 26/60 Sephacryl 100 HR column (GE Healthcare, Little Chalfont, Buckinghamshire, UK) and a 20 mM Tris/HCl pH 7.5, 150 mM NaCl running buffer.
To study the effect of the compounds on CKα, an in vitro enzymatic assay was performed using the purified enzyme as previously reported in [19, 28, 29]. Briefly, the incorporation of ^14C from [methyl-^14C]choline into PCho in either the absence (control) or presence of different inhibitors at varying concentrations was used to determine the CK activity. The reaction mixture included 20 ng of purified CKα1, 10 mM ATP, 10 mM MgCl2, 100 mM Tris-HCl pH 8.5, and increasing concentrations of compounds. The mixture was preincubated at 37 °C for 5 min. Then, [methyl-^14C]choline chloride (1 mM, 4500 dpm/nmol) was added and the reaction was left to proceed for 10 min at 37 °C. The assay was stopped by immersing the reaction tubes in boiling water. PCho was separated by Thin Layer Chromatography using methanol/0.6% NaCl/28% NH4OH in water (50:50:5, v/v/v) as solvent. The radioactivity associated into PCho was determined in a Beckman 6000-TA (Madrid, Spain) liquid scintillation counter. The 50% inhibitory concentrations (IC50 values) were determined from the % enzyme activity at different concentrations of synthetic inhibitors relative to the control by using a sigmoidal dose–response curve (ED50plus v1.0 software).
In the case of `[Br-].[Br-].c1cc2c(s1)c(N1CCCC1)nc[n+]2Cc1ccc(-c2ccc(C[n+]3cnc(N4CCCC4)c4sccc43)cc2)cc1` [Fa-21], the IC50 is at least 5000 nM.

Take `[Br-].[Br-].c1cc2c(s1)c(N1CCCCC1)nc[n+]2Cc1ccc(-c2ccc(C[n+]3cnc(N4CCCCC4)c4sccc43)cc2)cc1` [Fa-24]: 2330 ± 210 nM corresponded to half-maximal inhibition (IC50).

The compound `[Br-].[Br-].c1cc2c(s1)c(N1CCCCC1)nc[n+]2Cc1ccc(OCCOc2ccc(C[n+]3cnc(N4CCCCC4)c4sccc43)cc2)cc1` [Fa-28] displayed an IC50 of 3250 ± 540 nM. This IC50 and that of the compound before are within 1.5-fold of each other.

The assay is the same for the next values; noted with them: purified CKα1, inhibitor 10 µM, end-point assay.
Turning to `[Br-].[Br-].c1cc2c(s1)c(N1CCCC1)nc[n+]2Cc1ccc(-c2ccc(C[n+]3cnc(N4CCCC4)c4sccc43)cc2)cc1` [Fa-21], the “% Inhibition at 10 µM” value was 74.57%.

`[Br-].[Br-].c1cc2c(s1)c(N1CCCCC1)nc[n+]2Cc1ccc(-c2ccc(C[n+]3cnc(N4CCCCC4)c4sccc43)cc2)cc1` [Fa-24]: the “% Inhibition at 10 µM” value stood at 84.64%.

Consider `[Br-].[Br-].c1cc2c(s1)c(N1CCCCC1)nc[n+]2Cc1ccc(OCCOc2ccc(C[n+]3cnc(N4CCCCC4)c4sccc43)cc2)cc1` [Fa-28], for which the “% Inhibition at 10 µM” value was found to be 87.69%.

Staying with this assay, now noted: purified CKα1, inhibitor 30 µM, end-point assay.
Turning to `[Br-].[Br-].c1cc2c(s1)c(N1CCCC1)nc[n+]2Cc1ccc(-c2ccc(C[n+]3cnc(N4CCCC4)c4sccc43)cc2)cc1` [Fa-21], the “% Inhibition at 30 µM” value came to 86.58%.

For `[Br-].[Br-].c1cc2c(s1)c(N1CCCCC1)nc[n+]2Cc1ccc(-c2ccc(C[n+]3cnc(N4CCCCC4)c4sccc43)cc2)cc1` [Fa-24], the “% Inhibition at 30 µM” value is listed as 98.40%.

In the case of `[Br-].[Br-].c1cc2c(s1)c(N1CCCCC1)nc[n+]2Cc1ccc(OCCOc2ccc(C[n+]3cnc(N4CCCCC4)c4sccc43)cc2)cc1` [Fa-28], the “% Inhibition at 30 µM” value is on record as 92.19%.

Another assay concerns SEM cells. Description: Antiproliferative activity, resazurin assay, 72 h. It counts as cell-based, human.
Conditions: not given
As for the experimental part: (§1) Human cervix carcinoma (HeLa), Non-small lung adenocarcinoma (A549), Colon adenocarcinoma (HT29), and human triple negative breast cancer (MDA-MB-231) were cultured in Dulbecco’s modified Eagle’s media (DMEM). B-acute lymphoblastic leukemia (RS4;11 and SEM), T-acute lymphoblastic leukemia (Jurkat), and human promyelocytic cells (HL-60), were cultured in RPMI-1640 medium. Both media were purchased from Gibco, Life Technologies (Milan, Italy) and supplemented with 10% Fetal Bovine Serum (FBS, Invitrogen, Milan, Italy,). Every six months, each cell line was checked for the presence of mycoplasma by RT-PCR.
(§2) Stock solutions (10 mM) of the different compounds were made in DMSO. Cancer cells were seeded in tissue-treated, flat bottom, 384-well plates (Corning) according to their optimal density, (A549 1000 cells/wells; MDA-MB-231, HeLa and HT-29 2000 cells/well and finally Jurkat, HL-60 SEM and RS4;11 20.000 cells/well) in 27 µL of complete medium per well.
(§3) The day after cell seeding and immediately before cell treatment, 10 mM stock solutions of the compounds were pre-diluted to a […] concentration in 250 µL of Hank’s in a 96-well plate (Corning). Subsequent 1:5 dilutions were carried out using a microlab STAR 96-CORE liquid handling system (Hamilton), a robotized liquid handling tool that was employed for all steps, from cell seeding to drug dilution and cell treatment to ensure high reproducibility while reducing time for large screening execution. This pre-dilution step was necessary to avoid DMSO-related cytotoxicity and compound precipitation in the cell culture medium. In every case, DMSO concentration never exceeded 0.1%.
(§4) Positive (Bortezomib 1 µM) and negative (0.1% DMSO) controls were included in all the screened plates to allow for monitoring the Z’ factor throughout the entire screening. Cells were treated with 3 µL of the previously made dilutions; thus, generating a 6-point 5-fold dose–response curve starting from 10 µM. Within a plate, each drug concentration was tested in duplicate in two independent experiments for each compound.
(§5) Treated cells were then placed inside the CO2 incubator for 72 h at 37 °C. Cell viability was assessed by resazurin assay, in which 3 µL of resazurin per well were added using the previously described automated platform. Plates were placed in the incubator at 37 °C for 2 h, and then the fluorescence of each plate was read using a Spark 10 M multimode microplate reader (Tecan Group Ltd., Mannedorf, Switzerland) with 535 nm excitation wavelength and 600 nm emission wavelength.
`[Br-].[Br-].c1cc2c(s1)c(N1CCCC1)nc[n+]2Cc1ccc(-c2ccc(C[n+]3cnc(N4CCCC4)c4sccc43)cc2)cc1` [Fa-21] registered a GI50 of over 10000 nM.

`[Br-].[Br-].c1cc2c(s1)c(N1CCCCC1)nc[n+]2Cc1ccc(-c2ccc(C[n+]3cnc(N4CCCCC4)c4sccc43)cc2)cc1` [Fa-24]: the GI50 is over 10000 nM.

Turning to `[Br-].[Br-].c1cc2c(s1)c(N1CCCCC1)nc[n+]2Cc1ccc(OCCOc2ccc(C[n+]3cnc(N4CCCCC4)c4sccc43)cc2)cc1` [Fa-28], the GI50 is 2410 ± 40 nM.

In the next assay the test system is HeLa. Put plainly: Antiproliferative activity, resazurin assay, 72 h.
Conditions: not given
The format is cell-based, human. On the procedure:
as §1, §2, §3, §4, §5
`[Br-].[Br-].c1cc2c(s1)c(N1CCCC1)nc[n+]2Cc1ccc(-c2ccc(C[n+]3cnc(N4CCCC4)c4sccc43)cc2)cc1` [Fa-21]: the GI50 was over 10000 nM.

For `[Br-].[Br-].c1cc2c(s1)c(N1CCCCC1)nc[n+]2Cc1ccc(-c2ccc(C[n+]3cnc(N4CCCCC4)c4sccc43)cc2)cc1` [Fa-24], growth was halved (GI50) at 7080 ± 1300 nM.

`[Br-].[Br-].c1cc2c(s1)c(N1CCCCC1)nc[n+]2Cc1ccc(OCCOc2ccc(C[n+]3cnc(N4CCCCC4)c4sccc43)cc2)cc1` [Fa-28] yielded a GI50 of 590 ± 20 nM.

Another assay has as its system MDA-MB-231. Put plainly: Antiproliferative activity, resazurin assay, 72 h.
Conditions: not given
The format is cell-based, human. As for the experimental part: as §1, §2, §3, §4, §5
Compound `[Br-].[Br-].c1cc2c(s1)c(N1CCCC1)nc[n+]2Cc1ccc(-c2ccc(C[n+]3cnc(N4CCCC4)c4sccc43)cc2)cc1` [Fa-21] yielded a GI50 of 1710 ± 400 nM.

As to `[Br-].[Br-].c1cc2c(s1)c(N1CCCCC1)nc[n+]2Cc1ccc(-c2ccc(C[n+]3cnc(N4CCCCC4)c4sccc43)cc2)cc1` [Fa-24], growth was halved (GI50) at 700 ± 70 nM.

In turn, `[Br-].[Br-].c1cc2c(s1)c(N1CCCCC1)nc[n+]2Cc1ccc(OCCOc2ccc(C[n+]3cnc(N4CCCCC4)c4sccc43)cc2)cc1` [Fa-28] displayed a GI50 of 190 ± 10 nM.

Another assay concerns Jurkat. Put plainly: Antiproliferative activity, resazurin assay, 72 h. The format is cell-based, human.
Conditions: not given
As for the experimental part: as §1, §2, §3, §4, §5
Compound `[Br-].[Br-].c1cc2c(s1)c(N1CCCC1)nc[n+]2Cc1ccc(-c2ccc(C[n+]3cnc(N4CCCC4)c4sccc43)cc2)cc1` [Fa-21] returned a concentration for 50% growth inhibition (GI50) of over 10000 nM.

In turn, `[Br-].[Br-].c1cc2c(s1)c(N1CCCCC1)nc[n+]2Cc1ccc(-c2ccc(C[n+]3cnc(N4CCCCC4)c4sccc43)cc2)cc1` [Fa-24] had a GI50 of over 10000 nM.

In turn, `[Br-].[Br-].c1cc2c(s1)c(N1CCCCC1)nc[n+]2Cc1ccc(OCCOc2ccc(C[n+]3cnc(N4CCCCC4)c4sccc43)cc2)cc1` [Fa-28] registered a GI50 of over 10000 nM.

The test system of another assay is HT29. Put plainly: Antiproliferative activity, resazurin assay, 72 h. The format is cell-based, human.
Conditions: not given
On the procedure:
as §1, §2, §3, §4, §5
`[Br-].[Br-].c1cc2c(s1)c(N1CCCC1)nc[n+]2Cc1ccc(-c2ccc(C[n+]3cnc(N4CCCC4)c4sccc43)cc2)cc1` [Fa-21]: the GI50 is over 10000 nM.

Regarding `[Br-].[Br-].c1cc2c(s1)c(N1CCCCC1)nc[n+]2Cc1ccc(-c2ccc(C[n+]3cnc(N4CCCCC4)c4sccc43)cc2)cc1` [Fa-24], the GI50 is over 10000 nM.

Compound `[Br-].[Br-].c1cc2c(s1)c(N1CCCCC1)nc[n+]2Cc1ccc(OCCOc2ccc(C[n+]3cnc(N4CCCCC4)c4sccc43)cc2)cc1` [Fa-28] came in with a GI50 of over 10000 nM.

The test system of the next assay is RS 4;11. Put plainly: Antiproliferative activity, resazurin assay, 72 h. The format is cell-based, human.
Conditions: not given
On the procedure: as §1, §2, §3, §4, §5
With `[Br-].[Br-].c1cc2c(s1)c(N1CCCC1)nc[n+]2Cc1ccc(-c2ccc(C[n+]3cnc(N4CCCC4)c4sccc43)cc2)cc1` [Fa-21], the GI50 was over 10000 nM.

In turn, `[Br-].[Br-].c1cc2c(s1)c(N1CCCCC1)nc[n+]2Cc1ccc(-c2ccc(C[n+]3cnc(N4CCCCC4)c4sccc43)cc2)cc1` [Fa-24] had a GI50 of over 10000 nM.

For the compound `[Br-].[Br-].c1cc2c(s1)c(N1CCCCC1)nc[n+]2Cc1ccc(OCCOc2ccc(C[n+]3cnc(N4CCCCC4)c4sccc43)cc2)cc1` [Fa-28], growth was halved (GI50) at 2320 ± 30 nM.

Another assay concerns A549. Description: Antiproliferative activity, resazurin assay, 72 h.
Conditions: not given
It counts as cell-based, human. As for the experimental part:
as §1, §2, §3, §4, §5
The compound `[Br-].[Br-].c1cc2c(s1)c(N1CCCC1)nc[n+]2Cc1ccc(-c2ccc(C[n+]3cnc(N4CCCC4)c4sccc43)cc2)cc1` [Fa-21] yielded a GI50 of 220 ± 10 nM.

The compound `[Br-].[Br-].c1cc2c(s1)c(N1CCCCC1)nc[n+]2Cc1ccc(-c2ccc(C[n+]3cnc(N4CCCCC4)c4sccc43)cc2)cc1` [Fa-24] registered a GI50 of 1170 ± 200 nM. Against the preceding compound, the GI50 is about 5.3-fold higher.

The compound `[Br-].[Br-].c1cc2c(s1)c(N1CCCCC1)nc[n+]2Cc1ccc(OCCOc2ccc(C[n+]3cnc(N4CCCCC4)c4sccc43)cc2)cc1` [Fa-28] registered a GI50 of 290 ± 20 nM.

For a further assay, the system named is HL-60. Description: Antiproliferative activity, resazurin assay, 72 h. The format is cell-based, human.
Conditions: not given
As for the experimental part: as §1, §2, §3, §4, §5
As for `[Br-].[Br-].c1cc2c(s1)c(N1CCCC1)nc[n+]2Cc1ccc(-c2ccc(C[n+]3cnc(N4CCCC4)c4sccc43)cc2)cc1` [Fa-21], the GI50 worked out at 3400 ± 700 nM.

In turn, `[Br-].[Br-].c1cc2c(s1)c(N1CCCCC1)nc[n+]2Cc1ccc(-c2ccc(C[n+]3cnc(N4CCCCC4)c4sccc43)cc2)cc1` [Fa-24] displayed a GI50 of 7280 ± 1100 nM. This GI50 is about 2.1-fold higher than that of the compound before.

On to `[Br-].[Br-].c1cc2c(s1)c(N1CCCCC1)nc[n+]2Cc1ccc(OCCOc2ccc(C[n+]3cnc(N4CCCCC4)c4sccc43)cc2)cc1` [Fa-28], for which the GI50 came out at 350 ± 10 nM.
